Source: patent US12491209B2, “Dissolved C60 and method of producing dissolved C60” (Innovation for Success, LLC, priority 2019, dated 2025)
Converted amounts (≈) assume the structure as drawn. Where two headings read alike, the source gives them in different places.

Tests used:
[1] = Solubility of C60 in limonene composition / d-limonene by heating method 200; type: physicochemical
Excerpt: As shown in the flowchart of FIG. 2 and with additional reference to FIG. 3, a method 200 for dissolving C60 304 in a liquid medium that is non-toxic and safe for human consumption includes combining C60 304 with a limonene composition 308 to form a C60 mixture 312. (Block 204). The limonene composition 308 is discussed in connection with the method 200, but the limonene composition 308 may be substituted with orange terpenes or other edible and non-toxic terpenes (or terpene containing liquids). The limonene composition 308 is used over orange terpenes, because the limonene composition 308 has a more pleasant and less bitter taste. In one embodiment, the limonene composition 308 is at least 95% d-limonene by volume, with the remaining 5% including any other liquid, such as limonene, flavoring, fragrances, and the like. In another embodiment, the limonene composition 308 is at least 75% d-limonene with the remaining 25% including any other liquid, such as limonene, flavoring, fragrances, and the like.
At block 204 of the method 200, the C60 304 is pulverized into a powdered form and combined with the liquid limonene composition 308 in a glass vessel (not shown) or any other heat-safe and non-reactive container. Additionally or alternatively, the C60 304 is not pulverized and is added to the limonene composition 308 in granular, chunky, or crystalline state. […]

[2] = cited from earlier work
[3] = C60 molecules diffuse out of the body; cited from earlier work
[4] = per single C60 molecule; cited from earlier work
IgE = conditions: animal models, applied topically; cited from earlier work

c12c3c4c5c1c1c6c7c2c2c8c3c3c9c4c4c%10c5c5c1c1c6c6c%11c7c2c2c7c8c3c3c8c9c4c4c9c%10c5c5c1c1c6c6c%11c2c2c7c3c3c8c4c4c9c5c1c1c6c2c3c41 [C60, Buckminsterfullerene]
dissolution of C60 into the limonene composition without heating ([1]; room temperature 70° F. (21° C.)): does not dissolve to any significant extent
Solubility Limit ([1]; solvent d-limonene, results achieved by method 200): 16670 µg/mL (≈ 23100 µM)
Solubility Limit ([2]; solvent 1,2-dichlorobenzene): 27000 µg/mL (≈ 37500 µM)
Solubility Limit ([2]; solvent 1-chloronaphthalene): 41000 µg/mL (≈ 56900 µM)
Solubility Limit ([2]; solvent 1-methylnaphthalene): 33000 µg/mL (≈ 45800 µM)
Solubility Limit ([2]; solvent acetone): 1 µg/mL (≈ 1.39 µM)
Solubility Limit ([2]; solvent anisole): 5600 µg/mL (≈ 7770 µM)
Solubility Limit ([2]; solvent benzene): 1700 µg/mL (≈ 2360 µM)
Solubility Limit ([2]; solvent benzonitrile): 410 µg/mL (≈ 569 µM)
Solubility Limit ([2]; solvent carbon disulfide): 7900 µg/mL (≈ 11000 µM)
Solubility Limit ([2]; solvent carbon tetrachloride): 447 µg/mL (≈ 620 µM)
Solubility Limit ([2]; solvent chloroform): 160 µg/mL (≈ 222 µM)
Solubility Limit ([2]; solvent cyclohexane): 36 µg/mL (≈ 50 µM)
Solubility Limit ([2]; solvent decalins): 4600 µg/mL (≈ 6380 µM)
Solubility Limit ([2]; solvent dichloromethane): 260 µg/mL (≈ 361 µM)
Solubility Limit ([2]; solvent ethanol): 1.4 µg/mL (≈ 1.94 µM)
Solubility Limit in mg/ml ([2]; solvent isopropanol): ND (“ND” indicates that C60 in insoluble in the identified solvent)
Solubility Limit in mg/ml ([2]; solvent methanol): ND (“ND” indicates that C60 in insoluble in the identified solvent)
Solubility Limit ([2]; solvent n-decane): 71 µg/mL (≈ 98.5 µM)
Solubility Limit ([2]; solvent n-hexane): 43 µg/mL (≈ 59.7 µM)
Solubility Limit ([2]; solvent n-pentane): 5 µg/mL (≈ 6.94 µM)
Solubility Limit ([2]; solvent octanol): 42.9 µg/mL (≈ 59.5 µM)
Solubility Limit ([2]; solvent tetrachloromethane): 320 µg/mL (≈ 444 µM)
Solubility Limit in mg/ml ([2]; solvent tetrahydrofuran): ND (“ND” indicates that C60 in insoluble in the identified solvent)
Solubility Limit ([2]; solvent tetralin): 16000 µg/mL (≈ 22200 µM)
Solubility Limit ([2]; solvent toluene): 2800 µg/mL (≈ 3890 µM)
Solubility Limit ([2]; solvent water): 1.3e-08 µg/mL (≈ 1.8e-08 µM)
Solubility Limit ([2]; solvent xylene): 5200 µg/mL (≈ 7220 µM)
residence time in the body [3]: about five
free electrons / methyl radicals absorbed per C60 molecule [4]: up to thirty-four
IgE reduction (IgE): reduce IgE significantly
